These results are taken from patent US6750245B2, “C7 carbamate substituted taxanes” (FSU Research Foundation, Inc., priority 2000, dated 2004).

Where only a bound is given, the exact number is not on record here.

The test system of this assay is HCT116. Briefly: In vitro cytotoxicity measured by the cell colony formation assay. The class given is cell-based. Particulars: HCT116 cells; drug concentration producing 50% inhibition of colony formation; incubated with drugs 72 h at 37° C.; colonies counted after 7 days; read-out: IN VITRO ID 50 (nm) HCT116. On the procedure: In Vitro Cytotoxicity Measured by the Cell Colony Formation Assay
Four hundred cells (HCT116) were plated in 60 mm Petri dishes containing 2.7 mL of medium (modified McCoy's 5a medium containing 10% fetal bovine serum and 100 units/mL penicillin and 100 µg/mL streptomycin). The cells were incubated in a CO2 incubator at 37° C. for 5 h for attachment to the bottom of Petri dishes. The compounds identified in Example 2 were made up fresh in medium at ten times the final concentration, and then 0.3 mL of this stock solution was added to the 2.7 mL of medium in the dish. The cells were then incubated with drugs for 72 h at 37° C. At the end of incubation the drug-containing media were decanted, the dishes were rinsed with 4 mL of Hank's Balance Salt Solution (HBSS), 5 mL of fresh medium was added, and the dishes were returned to the incubator for colony formation. The cell colonies were counted using a colony counter after incubation for 7 days.

For the compound `CCNC(=O)O[C@H]1C[C@H]2OC[C@@]2(OC(C)=O)C2[C@H](OC(=O)c3ccccc3)[C@]3(O)C[C@H](OC(=O)[C@H](O)[C@@H](NC(=O)C=C(C)C)c4ccco4)C(C)=C([C@@H](O)C(=O)[C@@]21C)C3(C)C` (some centres unmarked) [Compound 5588], the IC50 is less than 1 nM. `CC(=O)O[C@@]12CO[C@@H]1C[C@H](OC(=O)NC(C)(C)C)[C@@]1(C)C(=O)[C@H](O)C3=C(C)[C@@H](OC(=O)[C@H](O)[C@@H](NC(=O)OC(C)(C)C)c4ccco4)C[C@@](O)([C@@H](OC(=O)c4ccccc4)C12)C3(C)C` (some centres unmarked) [Compound 5454]: the IC50 was less than 10 nM.

Take `CC(=O)O[C@@]12CO[C@@H]1C[C@H](OC(=O)NC1CCCCC1)[C@@]1(C)C(=O)[C@H](O)C3=C(C)[C@@H](OC(=O)[C@H](O)[C@@H](NC(=O)OC(C)(C)C)c4ccco4)C[C@@](O)([C@@H](OC(=O)c4ccccc4)C12)C3(C)C` (some centres unmarked) [Compound 5373]: the IC50 was less than 10 nM. Next, `CC(=O)O[C@@]12CO[C@@H]1C[C@H](OC(=O)Nc1ccccc1)[C@@]1(C)C(=O)[C@H](O)C3=C(C)[C@@H](OC(=O)[C@H](O)[C@@H](NC(=O)C=C(C)C)c4ccco4)C[C@@](O)([C@@H](OC(=O)c4ccccc4)C12)C3(C)C` (some centres unmarked) [Compound 5535, N-Debenzoyl-N-isobutenyl-3′-desphenyl-3′-(2-furyl)-7-phenylcarbamoyl taxol]: less than 1 nM. Consider `CCC(C)(C)OC(=O)N[C@@H](c1ccco1)[C@@H](O)C(=O)O[C@H]1C[C@@]2(O)[C@@H](OC(=O)c3ccccc3)C3[C@](C)(C(=O)[C@H](O)C(=C1C)C2(C)C)[C@@H](OC(=O)Nc1ccccc1)C[C@H]1OC[C@@]31OC(C)=O` (some centres unmarked) [Compound 6399], for which the IC50 was less than 10 nM. For the compound `C/C=C/C(=O)N[C@@H](c1ccco1)[C@@H](O)C(=O)O[C@H]1C[C@@]2(O)[C@@H](OC(=O)c3ccccc3)C3[C@](C)(C(=O)[C@H](O)C(=C1C)C2(C)C)[C@@H](OC(=O)NC1CCCCC1)C[C@H]1OC[C@@]31OC(C)=O` (some centres unmarked) [Compound 5895], the IC50 is less than 1 nM.

`C/C=C/C(=O)N[C@@H](c1ccco1)[C@@H](O)C(=O)O[C@H]1C[C@@]2(O)[C@@H](OC(=O)c3ccccc3)C3[C@](C)(C(=O)[C@H](O)C(=C1C)C2(C)C)[C@@H](OC(=O)Nc1ccccc1)C[C@H]1OC[C@@]31OC(C)=O` (some centres unmarked) [Compound 5757]: the IC50 was less than 10 nM. For `CC=CC(=O)NC(c1ccco1)C(O)C(=O)OC1CC2(O)C(OC(=O)c3ccccc3)C3C4(OC(C)=O)COC4CC(OC(=O)Nc4ccc(F)c(F)c4)C3(C)C(=O)C(O)C(=C1C)C2(C)C` (centres unmarked) [Compound 5800], the IC50 is less than 10 nM.

In the case of `CCNC(=O)O[C@H]1C[C@H]2OC[C@@]2(OC(C)=O)C2[C@H](OC(=O)c3ccccc3)[C@]3(O)C[C@H](OC(=O)[C@H](O)[C@@H](NC(=O)OC(C)(C)C)c4ccco4)C(C)=C([C@@H](O)C(=O)[C@@]21C)C3(C)C` (some centres unmarked) [Compound 5393], the IC50 was less than 1 nM. Next, `C/C=C/C(=O)N[C@@H](c1ccco1)[C@@H](O)C(=O)O[C@H]1C[C@@]2(O)[C@@H](OC(=O)c3ccccc3)C3[C@](C)(C(=O)[C@H](O)C(=C1C)C2(C)C)[C@@H](OC(=O)NCC)C[C@H]1OC[C@@]31OC(C)=O` (some centres unmarked) [Compound 5822]: less than 10 nM; `CCC(C)(C)OC(=O)N[C@@H](c1ccco1)[C@@H](O)C(=O)O[C@H]1C[C@@]2(O)[C@@H](OC(=O)c3ccccc3)C3[C@](C)(C(=O)[C@H](O)C(=C1C)C2(C)C)[C@@H](OC(=O)Nc1ccc(F)c(F)c1)C[C@H]1OC[C@@]31OC(C)=O` (some centres unmarked) [Compound 6404]: less than 10 nM. Take `CC(=O)O[C@@]12CO[C@@H]1C[C@H](OC(=O)Nc1ccc(F)c(F)c1)[C@@]1(C)C(=O)[C@H](O)C3=C(C)[C@@H](OC(=O)[C@H](O)[C@@H](NC(=O)C=C(C)C)c4ccco4)C[C@@](O)([C@@H](OC(=O)c4ccccc4)C12)C3(C)C` (some centres unmarked) [Compound 5522]: the IC50 is less than 1 nM. Next, `CC(=O)O[C@@]12CO[C@@H]1C[C@H](OC(=O)Nc1ccc(F)c(F)c1)[C@@]1(C)C(=O)[C@H](O)C3=C(C)[C@@H](OC(=O)[C@H](O)[C@@H](NC(=O)OC(C)(C)C)c4ccco4)C[C@@](O)([C@@H](OC(=O)c4ccccc4)C12)C3(C)C` (some centres unmarked) [Compound 5415]: less than 1 nM. Regarding `CCCNC(=O)O[C@H]1C[C@H]2OC[C@@]2(OC(C)=O)C2[C@H](OC(=O)c3ccccc3)[C@]3(O)C[C@H](OC(=O)[C@H](O)[C@@H](NC(=O)OC(C)(C)C)c4ccco4)C(C)=C([C@@H](O)C(=O)[C@@]21C)C3(C)C` (some centres unmarked) [Compound 5665], the IC50 was greater than 50 nM.
